Experimental data reported in patent US11267811B2, “Small molecule inhibitors of galectin-3” (BRISTOL-MYERS SQUIBB COMPANY, priority 2017, dated 2022).
Read-outs that look alike come from different tables or passages of the source.

Molecular target: His-tagged recombinant human Gal-3 (hGal-3) (Homo sapiens (Human), UniProt P17931)
Assay: Gal-3 HTRF assay (His-tagged hGal-3 binding to B-ASF);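 further: compounds preincubated 30 min with hGal-3, then 1 h with B-ASF, detection via terbium anti-His antibody and streptavidin d2. Control with B-ASF counts as full signal, omitting B-ASF as background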
[1] = HTRF, hGal-3 15 nM, B-ASF 15 nM, read-out: hGal-3 IC50

Sequence of His-tagged recombinant human Gal-3 (hGal-3) (P17931 whole entry): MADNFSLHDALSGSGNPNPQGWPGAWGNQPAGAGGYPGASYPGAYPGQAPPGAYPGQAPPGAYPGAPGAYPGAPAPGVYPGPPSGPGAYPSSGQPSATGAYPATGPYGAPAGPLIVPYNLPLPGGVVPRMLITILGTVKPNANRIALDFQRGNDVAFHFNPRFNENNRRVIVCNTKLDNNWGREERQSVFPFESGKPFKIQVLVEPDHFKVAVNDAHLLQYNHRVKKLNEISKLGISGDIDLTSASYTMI

Structure (SMILES)	IC50 [1] [nM]	other results
CC(=O)Nc1cc(-c2cn([C@H]3[C@@H](O)[C@@H](CO)O[C@@H](c4ncnn4-c4ccc5nc(C)sc5c4)[C@@H]3O)nn2)cc(F)c1F [Example 219]	–	IC50 (read-out: hGal3 IC50): 70 nM
CO[C@@H]1[C@@H](n2cc(-c3ccc(Br)c(F)c3)nn2)[C@@H](O)[C@@H](CO)O[C@H]1c1nc(C)nn1-c1ccc2ncsc2c1 [Example A75]	–	IC50 (read-out: hGal IC50): 340 nM
Cc1nc([C@@H]2O[C@H](CO)[C@H](O)[C@H](n3cc(-c4cc(F)c(Br)c(F)c4)nn3)[C@H]2O)n(-c2cc3sc(C)nc3cc2C(F)(F)F)n1 [Example A33]	–	IC50 (read-out: hGal IC50): 103 nM
Cc1nc([C@@H]2O[C@H](CO)[C@H](O)[C@H](n3cc(-c4cc(F)c(Cl)c(F)c4)nn3)[C@H]2O)n(-c2cc3sc(C)nc3cc2C(F)(F)F)n1 [Example A30]	–	IC50 (read-out: hGal IC50): 17 nM
Cc1nc2ccc(-n3ncnc3[C@@H]3O[C@H](CO)[C@H](O)[C@H](n4cc(-c5ccc(C6CC6)c(F)c5)nn4)[C@H]3O)cc2s1 [Example 201, (2R,3R,4R,5R,6S)-4-(4-(4-cyclopropyl-3-fluorophenyl)-1H-1,2,3-triazol-1-yl)-2-(hydroxymethyl)-6-(1-(2-methylbenzo[d]thiazol-6-yl)-1H-1,2,4-triazol-5-yl)tetrahydro-2H-pyran-3,5-diol]	350	–
Cc1nc([C@@H]2O[C@H](CO)[C@H](O)[C@H](n3cc(-c4cc(F)c(Cl)c(F)c4)nn3)[C@H]2O)n(-c2cc(Cl)ccc2Cl)n1 [Example 260]	50	–
Cc1nc2ccc(-n3ncnc3[C@@H]3O[C@H](CO)[C@H](O)[C@H](n4cc(-c5ccc(N)c(F)c5)nn4)[C@H]3O)cc2s1 [Example 202]	–	IC50 (read-out: hGal3 IC50): 440 nM
OC[C@H]1O[C@@H](c2ncnn2-c2cc(Cl)ccc2Cl)C[C@@H](n2cc(-c3cc(F)c(F)c(F)c3)nn2)[C@H]1O [Example 177]	130	–
COc1ccc(-c2cn([C@H]3[C@@H](O)[C@@H](CO)O[C@@H](c4ncnn4-c4ccc5nc(C)sc5c4)[C@@H]3O)nn2)cc1F [Example 223]	200	–
Cc1nc([C@@H]2O[C@H](CO)[C@H](O)[C@H](n3cc(-c4ccc(Cl)c(F)c4)nn3)[C@H]2O)n(-c2cc(Cl)cc(F)c2Cl)n1 [Example A48]	–	IC50 (read-out: hGal IC50): 47 nM
CCOC(=O)Nc1cc(-c2cn([C@H]3[C@@H](O)[C@@H](CO)O[C@@H](c4ncnn4-c4ccc5nc(C)sc5c4)[C@@H]3O)nn2)cc(F)c1F [Example 220]	–	IC50 (read-out: hGal3 IC50): 70 nM
Cc1nc([C@@H]2O[C@H](CO)[C@H](O)[C@H](n3cc(-c4c(F)cc(Cl)cc4F)nn3)[C@H]2O)n(-c2cc(Cl)ccc2C(F)(F)F)n1 [Example A69]	–	IC50 (read-out: hGal IC50): 56 nM
Cc1nc2ccc(-n3ncnc3[C@@H]3O[C@H](CO)[C@H](O)[C@H](n4cc(-c5cc(N)c(F)c(F)c5)nn4)[C@H]3O)cc2s1 [Example 218]	–	IC50 (read-out: hGal3 IC50): 20 nM
CNc1ccc(-c2cn([C@H]3[C@@H](O)[C@@H](CO)O[C@@H](c4ncnn4-c4ccc5nc(C)sc5c4)[C@@H]3O)nn2)cc1F [Example 207]	–	IC50 (read-out: hGal3 IC50): 740 nM
Cc1nc([C@@H]2O[C@H](CO)[C@H](O)[C@H](n3cc(-c4cc(F)c(Cl)c(F)c4)nn3)[C@H]2O)n(-c2cc(Cl)ccc2C2CC2)n1 [Example A34]	–	IC50 (read-out: hGal IC50): 46 nM
Cc1nc2ccc(-n3ncnc3[C@@H]3O[C@H](CO)[C@H](O)[C@H](n4cc(-c5cc(C)c(C#N)c(F)c5)nn4)[C@H]3O)cc2s1 [Example 236]	–	IC50 (read-out: hGal3 IC50): 240 nM
COc1cc(-c2cn([C@H]3[C@@H](O)[C@@H](CO)O[C@@H](c4nc(C)nn4-c4cc(Cl)ccc4C(F)(F)F)[C@@H]3O)nn2)ccc1Cl [Example A79]	–	IC50 (read-out: hGal IC50): 40 nM
Cc1nc([C@@H]2O[C@H](CO)[C@H](O)[C@H](n3cc(-c4ccc(Cl)c(F)c4)nn3)[C@H]2O)n(-c2cc(Cl)ccc2Cl)n1 [Example 246]	–	IC50 (read-out: hGal3 IC50): 30 nM
Cc1ncc(-c2cccc(-n3ncnc3[C@@H]3O[C@H](CO)[C@H](O)[C@H](n4cc(-c5cc(F)c(F)c(F)c5)nn4)[C@H]3O)c2)s1 [Example 52]	300	–
Cc1nc([C@@H]2O[C@H](CO)[C@H](O)[C@H](n3cc(-c4cc(F)c(F)c(F)c4)nn3)[C@H]2O)n(-c2ccc3nc(C(F)(F)F)sc3c2)n1 [Example A8]	–	IC50 (read-out: hGal IC50): 505 nM
Cc1nc2ccc(-n3ncnc3[C@@H]3O[C@H](CO)[C@H](O)[C@H](n4cc(-c5cccc(F)c5)nn4)[C@H]3O)cc2s1 [Example 213]	–	IC50 (read-out: hGal3 IC50): 120 nM
Cc1nc([C@@H]2O[C@H](CO)[C@H](O)[C@H](n3cc(-c4ccc(Cl)c(F)c4F)nn3)[C@H]2O)n(-c2cc(Cl)ccc2Cl)n1 [Example A72]	–	IC50 (read-out: hGal IC50): 11 nM
OC[C@H]1O[C@@H](c2ncnn2-c2cc(Cl)ccc2C(F)(F)F)[C@H](O)[C@@H](n2cc(-c3cc(F)c(F)c(F)c3)nn2)[C@H]1O [Example A7]	–	IC50 (read-out: hGal IC50): 27 nM
OC[C@H]1O[C@@H](c2ncnn2-c2ccc3ncsc3c2)C[C@@H](n2cc(-c3cc(F)c(F)c(F)c3)nn2)[C@H]1O [Example 181]	40	–
N#Cc1ccc(Cl)cc1-n1cnnc1[C@@H]1O[C@H](CO)[C@H](O)[C@H](n2cc(-c3cc(F)c(Cl)c(F)c3)nn2)[C@H]1O [Example 312]	–	IC50 (read-out: hGal3 IC50): 1600 nM
CO[C@@H]1[C@@H](n2cc(-c3cc(F)c(F)c(F)c3)nn2)[C@@H](O)[C@@H](CO)O[C@H]1c1ncnn1-c1cccc(Cl)c1 [Example 189]	90	–
Cc1nc([C@@H]2O[C@H](CO)[C@H](O)[C@H](n3cc(-c4ccc(Br)c(F)c4)nn3)[C@H]2O)n(-c2cc(Cl)ccc2C2CC2)n1 [Example A38]	–	IC50 (read-out: hGal IC50): 72 nM
Cc1nc([C@H]2C[C@@H](n3cc(-c4cc(F)c(Cl)c(F)c4)nn3)[C@@H](O)[C@@H](CO)O2)n(-c2ccc3ncsc3c2)n1 [Example 265]	–	IC50 (read-out: hGal3 IC50): 30 nM
Cc1nc2ccc(-n3cnnc3[C@@H]3O[C@H](CO)[C@H](O)[C@H](n4cc(-c5ccc(Br)c(F)c5)nn4)[C@H]3OCC(F)F)cc2s1 [Example 322, (2R,3R,4S,5R,6S)-4-(4-(4-bromo-3-fluorophenyl)-1H-1,2,3-triazol-1-yl)-5-(2,2-difluoroethoxy)-2-(hydroxymethyl)-6-(4-(2-methylbenzo[d]thiazol-6-yl)-4H-1,2,4-triazol-3-yl)tetrahydro-2H-pyran-3-ol]	72	–

Continued, in another order:

IC50 [1] [nM]	Structure (SMILES)	other results
820	OC[C@H]1O[C@@H](c2nncn2-c2ccc(Oc3ccccc3)cc2)[C@H](O)[C@@H](n2cc(-c3cc(F)c(F)c(F)c3)nn2)[C@H]1O [Example 104]	–
300	Cn1cc2ccc(-n3cnnc3[C@@H]3O[C@H](CO)[C@H](O)[C@H](n4cc(-c5cc(F)c(F)c(F)c5)nn4)[C@H]3O)cc2n1 [Example 167]	–
270	OC[C@H]1O[C@@H](c2nncn2-c2ccc3ccncc3c2)[C@H](O)[C@@H](n2cc(-c3cc(F)c(F)c(F)c3)nn2)[C@H]1O [Example 126]	–
80	OC[C@H]1O[C@@H](c2ncnn2-c2cc(Cl)ccc2Cl)[C@H](O)[C@@H](n2cc(-c3cc(F)c(F)c(F)c3)nn2)[C@H]1O [Example 47]	–
290	OC[C@H]1O[C@@H](c2nncn2-c2ccc3c(c2)OCCO3)[C@H](O)[C@@H](n2cc(-c3cc(F)c(F)c(F)c3)nn2)[C@H]1O [Example 96]	–
480	OC[C@H]1O[C@@H](c2ncnn2-c2ccccc2Cl)[C@H](O)[C@@H](n2cc(-c3cc(F)c(F)c(F)c3)nn2)[C@H]1O [Example 24]	–
610	OC[C@H]1O[C@@H](c2ncnn2-c2ccc(Cl)cc2)[C@H](O)[C@@H](n2cc(-c3cc(F)c(F)c(F)c3)nn2)[C@H]1O [Example 43]	–
10000	COc1ccc([C@@H]2O[C@H](CO)[C@H](O)[C@H](n3cc(-c4cc(F)c(F)c(F)c4)nn3)[C@H]2O)cc1 [Example 292, (2R,3R,4R,5R,6S)-2-(hydroxymethyl)-6-(4-methoxyphenyl)-4-(4-(3,4,5-trifluorophenyl)-1H-1,2,3-triazol-1-yl)tetrahydro-2H-pyran-3,5-diol]	–
90	Cc1nc([C@@H]2O[C@H](CO)[C@H](O)[C@H](n3cc(-c4cc(F)c(F)c(F)c4)nn3)[C@H]2O)n(-c2cc(F)ccc2C(F)(F)F)n1 [Example 71]	–
130	OC[C@H]1O[C@@H](c2nncn2-c2ccc(N3CCNCC3)c(Cl)c2)[C@H](O)[C@@H](n2cc(-c3cc(F)c(F)c(F)c3)nn2)[C@H]1O [Example 141, (2S,3R,4R,5R,6R)-2-(4-(3-chloro-4-(piperazin-1-yl)phenyl)-4H-1,2,4-triazol-3-yl)-6-(hydroxymethyl)-4-(4-(3,4,5-trifluorophenyl)-1H-1,2,3-triazol-1-yl)tetrahydro-2H-pyran-3,5-diol]	–
120	Cc1nc2ccc(-n3nc(CC(N)=O)nc3[C@@H]3O[C@H](CO)[C@H](O)[C@H](n4cc(-c5cc(F)c(F)c(F)c5)nn4)[C@H]3O)cc2s1 [Example 268]	–
50	OC[C@H]1O[C@@H](c2nncn2-c2ccc3ncccc3c2)[C@H](O)[C@@H](n2cc(-c3cc(F)c(F)c(F)c3)nn2)[C@H]1O [Example 107]	–
366	CC(C)(C)c1cnnn1[C@@H]1O[C@H](CO)[C@H](O)[C@H](n2cc(-c3cc(F)c(F)c(F)c3)nn2)[C@H]1O [Example 10]	–
570	COc1cccc(-n2cnnc2[C@@H]2O[C@H](CO)[C@H](O)[C@H](n3cc(-c4cc(F)c(F)c(F)c4)nn3)[C@H]2O)n1 [Example 134]	–
110	COc1ccc(Cl)cc1-n1cnnc1[C@@H]1O[C@H](CO)[C@H](O)[C@H](n2cc(-c3cc(F)c(F)c(F)c3)nn2)[C@H]1O [Example 74]	–
1460	OC[C@H]1O[C@@H](c2nncn2-c2ccc(-n3ccnc3)cc2)[C@H](O)[C@@H](n2cc(-c3cc(F)c(F)c(F)c3)nn2)[C@H]1O [Example 117]	–
2000	OCCn1cnnc1[C@@H]1O[C@H](CO)[C@H](O)[C@H](n2cc(-c3cc(F)c(F)c(F)c3)nn2)[C@H]1O [Example 170, (2S,3R,4R,5R,6R)-2-(4-(2-hydroxyethyl)-4H-1,2,4-triazol-3-yl)-6-(hydroxymethyl)-4-(4-(3,4,5-trifluorophenyl)-1H-1,2,3-triazol-1-yl)tetrahydro-2H-pyran-3,5-diol]	–
50	CSc1cccc(-n2cnnc2[C@@H]2O[C@H](CO)[C@H](O)[C@H](n3cc(-c4cc(F)c(F)c(F)c4)nn3)[C@H]2O)c1 [Example 146]	–
1110	OC[C@H]1O[C@@H](c2ncnn2Cc2cccc(Cl)c2)[C@H](O)[C@@H](n2cc(-c3cc(F)c(F)c(F)c3)nn2)[C@H]1O [Example 22]	–
